Results: patent US10703756B2, “Pyrrolo[2,3-D]pyrimidinyl, pyrrolo[2,3-B]pyrazinyl, pyrrolo[2,3-B]pyridinyl acrylamides and epoxides thereof” (Pfizer Inc., priority 2015, dated 2020)

Key:
JAK3 enzyme [1] = target: T1, JAK3 enzyme (Homo sapiens, UniProt P52333); assay: JAK Caliper Enzyme Assay at 1 mM ATP; type: biochemical
T1 sequence (P52333 1-1124): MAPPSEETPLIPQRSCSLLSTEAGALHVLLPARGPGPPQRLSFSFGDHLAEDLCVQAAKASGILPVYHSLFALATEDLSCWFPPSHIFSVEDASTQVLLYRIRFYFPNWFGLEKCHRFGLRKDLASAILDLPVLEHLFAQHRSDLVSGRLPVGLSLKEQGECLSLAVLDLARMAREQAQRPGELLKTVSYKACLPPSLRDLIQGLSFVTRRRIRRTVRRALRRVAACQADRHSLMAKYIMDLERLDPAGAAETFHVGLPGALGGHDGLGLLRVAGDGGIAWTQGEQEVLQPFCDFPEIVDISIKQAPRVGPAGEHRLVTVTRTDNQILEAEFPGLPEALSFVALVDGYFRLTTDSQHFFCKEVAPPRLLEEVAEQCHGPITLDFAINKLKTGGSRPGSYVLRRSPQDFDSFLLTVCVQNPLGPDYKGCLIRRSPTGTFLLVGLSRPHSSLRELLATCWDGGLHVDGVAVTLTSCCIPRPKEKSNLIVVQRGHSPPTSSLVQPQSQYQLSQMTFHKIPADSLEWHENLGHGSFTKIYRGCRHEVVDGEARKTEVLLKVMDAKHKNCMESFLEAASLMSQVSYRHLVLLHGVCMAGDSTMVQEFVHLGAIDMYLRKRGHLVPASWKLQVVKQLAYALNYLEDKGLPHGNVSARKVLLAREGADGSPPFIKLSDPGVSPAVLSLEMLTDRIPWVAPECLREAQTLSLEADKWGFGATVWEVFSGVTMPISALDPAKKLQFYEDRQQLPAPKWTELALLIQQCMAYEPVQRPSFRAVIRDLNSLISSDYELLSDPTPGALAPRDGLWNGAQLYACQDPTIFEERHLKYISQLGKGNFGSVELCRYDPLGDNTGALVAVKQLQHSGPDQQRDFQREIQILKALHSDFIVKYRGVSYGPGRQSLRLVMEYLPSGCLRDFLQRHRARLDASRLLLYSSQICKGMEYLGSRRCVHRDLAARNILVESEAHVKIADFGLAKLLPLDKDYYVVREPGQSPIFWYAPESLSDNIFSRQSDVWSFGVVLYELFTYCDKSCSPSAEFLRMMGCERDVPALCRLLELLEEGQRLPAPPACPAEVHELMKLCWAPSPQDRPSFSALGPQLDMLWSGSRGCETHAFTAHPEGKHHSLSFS
Outline: (§1)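 Test compounds were diluted in DMSO as an 11-point half-log series from a 600 μM top concentration (DMSO series, not final assay level). Enzyme amount and incubation time were set per enzyme prep to reach 20%-30% phosphorylation. Phosphorylated and unphosphorylated peptide were resolved by microfluidic separation.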

JAK3 enzyme [2] = target: T1, JAK3 enzyme; assay: JAK Caliper Enzyme Assay at 4 μM ATP; type: biochemical
Outline: as §1

Compound | IC50 (JAK3 enzyme [1]) [nM] | IC50 (JAK3 enzyme [2]) [nM]
C=CC(=O)N1C[C@H](C2CC2)[C@H](Nc2cnc3[nH]cc(C(=O)NCC)c3n2)C1 [Example 238, 2-{[(3S,4S)-1-acryloyl-4-cyclopropylpyrrolidin-3-yl]amino}-N-ethyl-5H-pyrrolo[2,3-b]pyrazine-7-carboxamide] | 1360 | 9.48
C=CC(=O)N1C[C@H](Nc2cnc3[nH]cc(C(=O)NCC)c3n2)C[C@H]1COC [Example 239, 2-{[(3R,5S)-1-acryloyl-5-(methoxymethyl)pyrrolidin-3-yl]amino}-N-ethyl-5H-pyrrolo[2,3-b]pyrazine-7-carboxamide] | 757 | 3.78
C=CC(=O)N1C[C@H](Nc2cnc3[nH]cc(C(=O)NCC)c3n2)[C@@](C)(C#N)C1 [Example 240, 2-{[(3R,4S)-1-acryloyl-4-cyano-4-methylpyrrolidin-3-yl]amino}-N-ethyl-5H-pyrrolo[2,3-b]pyrazine-7-carboxamide] | 4060 | 10.9
C=CC(=O)N1C[C@H](CC)[C@H](Nc2cnc3[nH]cc(C(=O)NCC)c3n2)C1 [Example 241, 2-{[(3S,4S)-1-acryloyl-4-ethylpyrrolidin-3-yl]amino}-N-ethyl-5H-pyrrolo[2,3-b]pyrazine-7-carboxamide] | 857 | 3.79
C=CC(=O)N1CC(Nc2cnc3[nH]cc(C(=O)NCC(F)(F)F)c3n2)C2(CC2)C1 (centres unmarked) [Example 242, 2-[(5-acryloyl-5-azaspiro[2.4]hept-7-yl)amino]-N-(2,2,2-trifluoroethyl)-5H-pyrrolo[2,3-b]pyrazine-7-carboxamide] | > 10000 | 62.1
C=CC(=O)N1CC(Nc2cnc3[nH]cc(C(=O)NCC)c3n2)C2(CC2)C1 (centres unmarked) [Example 244, 2-[(5-acryloyl-5-azaspiro[2.4]hept-7-yl)amino]-N-ethyl-5H-pyrrolo[2,3-b]pyrazine-7-carboxamide] | > 10000 | 82.3
C=CC(=O)N1C[C@H](Nc2cnc3[nH]cc(C(=O)NCCOC)c3n2)C[C@@H]1COC [Example 246, 2-{[(3R,5R)-1-acryloyl-5-(methoxymethyl)pyrrolidin-3-yl]amino}-N-(2-methoxyethyl)-5H-pyrrolo[2,3-b]pyrazine-7-carboxamide] | 1110 | 7.79
C=CC(=O)N1C[C@H](C2CC2)[C@H](Nc2cnc3[nH]cc(C(=O)NCCOC)c3n2)C1 [Example 247, 2-{[(3S,4S)-1-acryloyl-4-cyclopropylpyrrolidin-3-yl]amino}-N-(2-methoxyethyl)-5H-pyrrolo[2,3-b]pyrazine-7-carboxamide] | 829 | 3.34
C=CC(=O)N1CC(Nc2cnc3[nH]cc(C(=O)NCCCC(F)(F)F)c3n2)C2(CC2)C1 (centres unmarked) [Example 249, 2-[(5-acryloyl-5-azaspiro[2.4]hept-7-yl)amino]-N-(4,4,4-trifluorobulyl)-5H-pyrrolo[2,3-b]pyrazine-7-carboxamide] | > 10000 | 75.3
C=CC(=O)N1C[C@H](Nc2cnc3[nH]cc(C(=O)NCC)c3n2)C[C@H]1COCC [Example 250, 2-{[(3R,5S)-1-acryloyl-5-(ethoxymethyl)pyrrolidin-3-yl]amino}-N-ethyl-5H-pyrrolo[2,3-b]pyrazine-7-carboxamide] | 798 | 4.31
C=CC(=O)N1C[C@H](Nc2cnc3[nH]cc(C(=O)NCC)c3n2)[C@](C)(C#N)C1 [Example 251, 2-{[(3R,4R)-1-acryloyl-4-cyano-4-methylpyrrolidin-3-yl]amino}-N-ethyl-5H-pyrrolo[2,3-b]pyrazine-7-carboxamide] | 1320 | 5.12
C=CC(=O)N1CC(Nc2cnc3[nH]cc(C(=O)NCCC(F)(F)F)c3n2)C2(CC2)C1 (centres unmarked) [Example 252, 2-[(5-acryloyl-5-azaspiro[2.4]hept-7-yl)amino]-N-(3,3,3-trifluoropropyl)-5H-pyrrolo[2,3-b]pyrazine-7-carboxamide] | > 10000 | 110
C=CC(=O)N1C[C@@H](CC)[C@@H](Nc2cnc3[nH]cc(C(=O)NCCOC)c3n2)C1 [Example 257, 2-{[(3R,4R)-1-acryloyl-4-ethylpyrrolidin-3-yl]amino}-N-(2-methoxyethyl)-5H-pyrrolo[2,3-b]pyrazine-7-carboxamide] | 6460 | 55.3
C=CC(=O)N1C[C@H](Nc2cnc3[nH]cc(C(=O)NCCOC)c3n2)C[C@H]1COC [Example 258, 2-{[(3R,5S)-1-acryloyl-5-(methoxymethyl)pyrrolidin-3-yl]amino}-N-(2-methoxyethyl)-5H-pyrrolo[2,3-b]pyrazine-7-carboxamide] | 1050 | 6.23
C=CC(=O)N1C[C@H](Nc2cnc3[nH]cc(C(=O)NCCOC)c3n2)[C@H](C2CC2)C1 [Example 259, 2-{[(3R,4R)-1-acryloyl-4-cyclopropylpyrrolidin-3-yl]amino}-N-(2-methoxyethyl)-5H-pyrrolo[2,3-b]pyrazine-7-carboxamide] | > 10000 | 180
C=CC(=O)N1C[C@H](Nc2cnc3[nH]cc(C(=O)NCC)c3n2)[C@H](C2CC2)C1 [Example 261, 2-{[(3R,4R)-1-acryloyl-4-cyclopropylpyrrolidin-3-yl]amino}-N-ethyl-5H-pyrrolo[2,3-b]pyrazine-7-carboxamide] | > 10000 | 259
C=CC(=O)N1C[C@H](Nc2cnc3[nH]cc(C(=O)NCC)c3n2)C[C@@H]1COC [Example 262, 2-{[(3R,5R)-1-acryloyl-5-(methoxymethyl)pyrrolidin-3-yl]amino}-N-ethyl-5H-pyrrolo[2,3-b]pyrazine-7-carboxamide] | 2180 | 11.6
C=CC(=O)N1C[C@@H](CC)[C@@H](Nc2cnc3[nH]cc(C(=O)NCC)c3n2)C1 [Example 263, 2-{[(3R,4R)-1-acryloyl-4-ethylpyrrolidin-3-yl]amino}-N-ethyl-5H-pyrrolo[2,3-b]pyrazine-7-carboxamide] | 6460 | 52.4
C=CC(=O)N1C[C@H](C)[C@H](Nc2cnc3[nH]cc(C(=O)NCCOC)c3n2)C1 [Example 264, 2-{[(3S,4S)-1-acryloyl-4-methylpyrrolidin-3-yl]amino}-N-(2-methoxyethyl)-5H-pyrrolo[2,3-b]pyrazine-7-carboxamide] | 479 | 2.41
C=CC(=O)N1CCN(c2cnc3[nH]cc(C(=O)NCCCC(F)(F)F)c3n2)CC1(C)C [Example 272, 2-(4-acryloyl-3,3-dimethylpiperazin-1-yl)-N-(4,4,4-trifluorobutyl)-5H-pyrrolo[2,3-b]pyrazine-7-carboxamide] | 651 | 3.82
C=CC(=O)N1CCC(Nc2cnc3[nH]cc(C(=O)NC[C@H](C)CC(F)(F)F)c3n2)CC1C (stereo partly drawn) [Example 280, 2-[(1-acryloyl-2-methylpiperidin-4-yl)amino]-N-[(2R)-4,4,4-trifluoro-2-methylbutyl]-5H-pyrrolo[2,3-b]pyrazine-7-carboxamide] | 501 | 2.49
C=CC(=O)N1CCN(c2cnc3[nH]cc(C(=O)NCC(F)(F)F)c3n2)CC1(C)C [Example 286, 2-(4-acryloyl-3,3-dimethylpiperazin-1-yl)-N-(2,2,2-trifluoroethyl)-5H-pyrrolo[2,3-b]pyrazine-7-carboxamide] | 1020 | 12.4
C=CC(=O)N1CCN(c2cnc3[nH]cc(C(=O)N[C@@H]4C[C@H]4C(F)(F)F)c3n2)CC1 [Example 287, 2-(4-acryloylpiperazin-1-yl)-N-[(1R,2R)-2-(trifluoromethyl)cyclopropyl]-5H-pyrrolo[2,3-b]pyrazine-7-carboxamide] | 499 | 2.71
C=CC(=O)N1CCN(c2cnc3[nH]cc(C(=O)N[C@@H]4C[C@H]4C(F)(F)F)c3n2)CC1(C)C [Example 290, 2-(4-acryloyl-3,3-dimethylpiperazin-1-yl)-N-[(1R,2R)-2-(trifluoromethyl)cyclopropyl]-5H-pyrrolo[2,3-b]pyrazine-7-carboxamide] | 2150 | 20.8
C=CC(=O)N1CCN(c2cnc3[nH]cc(C(=O)NCC4(O)CCC(F)(F)CC4)c3n2)CC1(C)C [Example 291, 2-(4-acryloyl-3,3-dimethylpiperazin-1-yl)-N-[(4,4-difluoro-1-hydroxycyclohexyl)methyl]-5H-pyrrolo[2,3-b]pyrazine-7-carboxamide] | 1490 | 15.5
